The structures appear in SMILES notation.

This assay deals with Blattalla germanica. The assay can be described thus: Test Example 5: filter paper with sucrose bait, Blattalla germanica male imagoes. It is filed as in vivo. The settings on record: 500 ppm active ingredient, 0.7 ml on filter paper; 2 male imagoes; after 6 days. The procedure: A formulation of any one of the present compounds (1t), (1c), (3), (4), (7) and (8) obtained according to Formulation Example 16 was diluted with water to prepare a test solution having 500 ppm of the active ingredient.
A filter paper having a diameter of 5.5 cm was spread on the bottom of a polyethylene cup having a diameter of 5.5 cm and 0.7 ml of the test solution was added dropwise onto the filter paper. As a bait, 30 mg of sucrose was uniformly placed on the filter paper. Into the polyethylene cup, 2 male imagoes of Blattalla germanica were released and the cup was sealed with a lid. After 6 days, the number of surviving or dead Blattalla germanica was counted and the death rate of the pest was calculated.

Regarding `C#CC1(F)CCC(CC(C#N)(C#N)CCC(F)(F)F)CC1` (stereo not drawn) [(3)], the pest death rate came to 100%. `C#C[C@H]1CC[C@@H](CC(C#N)(C#N)CCC(F)(F)F)CC1` [(1c)]: the pest death rate came out at 100%.

`CON=C1CCC(CC(C#N)(C#N)CCC(F)(F)F)CC1` (stereo not drawn) [(8)] returned a pest death rate of 100%. Next, `C#CC1(F)CCC(CCC(C#N)(C#N)CCC(F)(F)F)CC1` (stereo not drawn) [(7)]: 100%; `C#C[C@H]1CC[C@H](CC(C#N)(C#N)CCC(F)(F)F)CC1` [(1t)]: 100%; `C#CC12CCC(CC(C#N)(C#N)CCC(F)(F)F)CC1O2` (stereo not drawn) [(4)]: 100%.

The record behind these values is patent publication US8344163B2, “Nitrile compound and its use for control of arthropod pest” (Sumitomo Chemical Company, Limited, priority 2008, dated 2013).
